Assays:
Format in all cases: cell-based, mouse
[1] = system: Aβ secretion from Neuro2a-APPSw cells; assay: Secreted Aβ from Neuro2a-APPSw cells after LXR activation (immunoprecipitation and immunoblotting)
Experimental: Neuro2a-APPSw cells were treated with LXR activators (TO or 22(R)-hydroxycholesterol) and in some cases also with RXR activator (9-cis-retinoic acid). Secreted Aβ (sAβ) was detected in medium by immunoprecipitation and immunoblotting. Cellular APP (cAPP) levels were measured by immunoblotting cell lysates. Western blots were scanned and quantified by ImageQuant. The bar graphs show the combined results (means±S.E.) from at least three independent experiments. A, cells were treated with increasing amounts of TO. B, cells were treated with mock transfection (control) or 1 μM TO, μM 9-cis-RA. C, cells were treated with mock transfection or 5 μM 22(R)-hydroxycholesterol (22(R)OHchol), 10 μM 9-cis-RA. #, p<0.05 compared with control. *, p<0.01 compared with control. […]
In experiments with LXR activation, the cells were first induced with activators for 24 h in DMEM, 5% lipoprotein-deficient serum. […] The immunoblots were developed using the ECL system (Pierce) scanned and quantified by ImageQuant (Molecular Dynamics). Quantitation of Aβ40 and Aβ42 was performed using a commercial Aβ enzyme-linked immunosorbent assay kit. […]
The cells were treated with increasing doses of the synthetic LXRα/β activator TO901317 (“TO”), and Aβ secretion into medium was measured by immunoprecipitation and Western blotting (FIG. 1A).

[2] = system: efflux of cellular phospholipids, Neuro2a cells; assay: Cellular phospholipid efflux from ABCA1-expressing Neuro2a cells; details: expression of ABCA1 and addition of apoA-I
[3] = system: Aβ generation from C99 in Neuro2a cells; assay: γ-Secretase cleavage of C99 Myc in Neuro2a cells transfected with ABCA1; details: Neuro2a cells transfected with C99 Myc and ABCA1; apoA-I added; data not shown
Experimental: FIGS. 5A-5B: ABCA1 overexpression decreases β-cleavage of APPSw and γ-cleavage of the 99-amino acid C-terminal fragment of APP. A, Neuro2a-APPSw cells were transfected with either empty vector or vector containing ABCA1 cDNA. The β-cleavage product C99 was detected by immunoprecipitation of cell lysates with antibody 4G8 followed by immunoblotting with 6E10. Cellular APP (cAPP) level was measured by immunoblotting cell lysates. The data are the means±S.E. for five separate experiments; *, p<0.01 compared with mock (mk) transfected. B, Neuro2a cells were transfected with vector containing either C99 Myc alone or C99 Myc with ABCA1. Aβ was detected as in FIG. 3. Cellular C99 was detected by immunoprecipitation with anti-Myc antibody followed by Western blot with 6E10. The data are shown for three separate experiments conducted in duplicate. #, p<0.05 compared with C99 transfected alone.
Both β and γ-cleavage of APP are required for the generation of Aβ. A series of experiments were carried out to determine which step is affected by ABCA1 overexpression. To measure β-cleavage, the β-secretase cleavage product was immunoprecipitated (C99 ) from cell lysates. There was an 85% decrease of cellular C99 in Neuro2a-APPSw cells transiently transfected with ABCA1 compared with mock transfected control (FIG. 5A). γ-Secretase mediates the final step in Aβ generation (1). […]

[4] = system: Aβ secretion from Neuro2a-APPSw cells; assay: Aβ secretion from ABCA1- or mock-transfected Neuro2a-APPSw cells with added apolipoproteins; details: apolipoprotein added for 6 h, compared with ABCA1 without apolipoprotein
Experimental: FIGS. 3A-3C: ABCA1 overexpression inhibits Aβ secretion.
FIG. 4: The effect of apoE isoforms on Aβ secretion.
(§1) Cellular cholesterol mass was also measured.
Because apoE is a major apolipoprotein in the central nervous system and the apoE4 isoform is associated with increased risk of AD (19, 20), the effects of apoE on Aβ formation was also examined. […] Again, the major effect was attributable to ABCA1 expression alone.

[5] = system: cellular cholesterol efflux, Neuro2a cells; assay: Cellular cholesterol efflux from ABCA1-expressing Neuro2a cells; details: expression of ABCA1 and addition of apoA-I (10 μg/ml, 6 h)
Experimental: The efflux experiments were performed as described (13). Briefly, Neuro2a cells were labeled with 1 μCi/ml [1.2-^3H(N)]-cholesterol (PerkinElmer Life Sciences) in DMEM containing 5 mM methyl-β-cyclodextrin:cholesterol at a molar ratio of 8:1 for 15 min at 37° C. After washing, the cells were equilibrated in DMEM, 0.2% bovine serum albumin for 30 min and then used for efflux experiments. […] The cells were lysed in 0.1 M sodium hydroxide, 0.1% SDS, and radioactivity was determined by liquid scintillation counting. Efflux was expressed as the percentage of radioactivity in the medium relative to the total radioactivity in cells and medium.
as §1

## O=S(=O)(c1ccccc1)N(CC(F)(F)F)c1ccc(C(O)(C(F)(F)F)C(F)(F)F)cc1 [TO901317]
[1]; 1 μM TO, 24 h induction, 4 h medium, immunoprecipitation and Western blotting (FIG. 1A)
  reduction in secretion of Aβ into medium: ~50%
[1]; administration of the LXR activator, data not shown
  amount of soluble form of APP (APPsα) in medium: not significantly changed

## apoA-I: purified human apolipoprotein A-I, from Biodesign
[2]
  increase in efflux of cellular phospholipids: 1.9 % of total cellular choline-labeled lipids
[3]
  further decrease in Aβ generation from C99: did not provide a further decrease
[4]
  further change in Aβ on adding apolipoprotein to ABCA1-expressing cells: only a slight further decrease
[5]
  increase in cellular cholesterol efflux: 1.0±0.1 % of total cellular cholesterol
